Laboratory results reported in patent US11945765B1, “4,4′-naphthalene-1,5-diylbis(diazene-2,1-diyl)bis(2-methylphenol) as an antioxidant compound” (KING FAISAL UNIVERSITY, priority 2023, dated 2024).

Test: DPPH radical scavenging antioxidant test
Details: 517 nm; for Inhibition (radical scavenging inhibition): DPPH (0.75 mM), compound 3 μM in ethanol, 30 minutes in the dark
Description: The antioxidant properties of the 4,4′-naphthalene-1,5-diylbis(diazene-2,1-diyl)bis(2-methylphenol) compound were studied by adding 0.2 mL DPPH (0.75 mM)) to 4,4′-naphthalene-1,5-diylbis(diazene-2,1-diyl)bis(2-methylphenol) (III) (3 μM) in ethanol. After 30 minutes of incubation in the dark, the absorbance was read against a blank at 517 nm. Ascorbic acid (vitamin C) was used as standard antioxidants (positive control). A blank sample was prepared by 0.2 ml of DPPH in 3 mL ethanol. A negative control sample was run using ethanol instead of the sample. The radical scavenging inhibition was calculated using the following equation: […]

## Cc1cc(/N=N\c2cccc3c(/N=N/c4ccc(O)c(C)c4)cccc23)ccc1O [Product III, 4,4′-naphthalene-1,5-diylbis(diazene-2,1-diyl)bis(2-methylphenol)]
  Inhibition (radical scavenging inhibition): 52%
DPPH in vitro test, vitamin C as positive control
  antioxidant potential compared to vitamin C (in words): high potential as an antioxidant

## O=C1O[C@H]([C@@H](O)CO)C(O)=C1O [vit c, Ascorbic acid, reference compound]
  Inhibition (radical scavenging inhibition): 74%
